Test results as given in patent publication US20110166179A1, “ANTIBACTERIAL QUINOLINE DERIVATIVES” (priority 2007, published 2011).
≈ marks a conversion by molar mass, not a printed value. Read-outs that look alike come from different tables or passages of the source.

What was measured:
Format in all cases: cell-based
M. Smegmatis (ATCC607) = test: In-vitro anti-bacterial activity against strain M. Smegmatis ATCC607; details: for IC90: Mycolicibacterium smegmatis, read-out: IC90 MSM ATCC607
Method: D.2. In-Vitro Method for Testing Compounds for Anti-Bacterial Activity Against Strain M. Smegmatis ATCC607. Flat-bottom, sterile 96-well plastic microtiter plates were filled with 180 μl of sterile deionized water, supplemented with 0.25% BSA. […] Serial five-fold dilutions (45 μl in 180 μl) were made directly in the microtiter plates from column 2 to 11 using a customised robot system (Zymark Corp., Hopkinton, Mass.). Pipette tips were changed after every 3 dilutions to minimize pipetting errors with high hydrophobic compounds. […] Approximately 250 CFU per well of bacteria inoculum, in a volume of 100 μl in 2.8× Mueller-Hinton broth medium, was added to the rows […]. The same volume of broth medium without inoculum was added to column 12 in row A to H. The cultures were incubated at 37° C. for 48 hours in a humidified 5% CO2 atmosphere (incubator with open air valve and continuous ventilation). At the end of incubation, two days after inoculation, the bacterial growth was quantitated fluorometrically. Therefore Alamar Blue (10×) was added to all wells in a volume of 20 μl and plates were incubated for another 2 hours at […] The fluorescence was read in a computer-controlled fluorometer (Cytofluor, Biosearch) at an excitation wavelength of 530 nm and an emission wavelength of 590 nm (gain 30).

[1] = tested on: Streptococcus pneumoniae (ATCC6305); test: In-vitro anti-bacterial microtitre plate assay, IC90 determination, Streptococcus pneumoniae; details: for IC90: read-out: IC90 SPN 6305
Method: (§1) D.3. In-Vitro Method for Testing Compounds for Anti-Bacterial Activity Against Various Non-Mycobacterial Strains […] The bacteria used in this study were grown overnight in flasks containing 100 ml Mueller-Hinton Broth (Becton Dickinson-cat. no. 275730) in sterile de-ionized water, with shaking, at 37° C. Stocks (0.5 ml/tube) were stored at -70° C. until use. Bacteria titrations were performed in microtiter plates to detect the TCID50, in which the TCID50 represents the dilution that gives rise to bacterial growth in 50% of inoculated cultures. In general, an inoculum level of approximately 100 TCID50 was used for susceptibility testing. Anti Bacterial Susceptibility Testing: IC90 Determination Microtitre Plate Assay […] Depending on the bacteria type, approximately 10 to 60 CFU per well of bacteria inoculum (100 TCID50), in a volume of 100 μl in 2.8× Mueller-Hinton broth medium, was added to the rows […]. The same volume of broth medium without inoculum was added to column 12 in row A to H. The cultures were incubated at 37° C. for 24 hours under a normal atmosphere (incubator with open air valve and continuous ventilation). At the end of incubation, one day after inoculation, the bacterial growth was quantitated fluorometrically. Therefore resazurin (0.6 mg/ml) was added in a volume of 20 μl to all wells 3 hours after inoculation, and the plates were re-incubated overnight. A change in colour from blue to pink indicated the growth of bacteria. The fluorescence was read in a computer-controlled fluorometer (Cytofluor Biosearch) at an excitation wavelength of 530 nm and an emission wavelength of 590 nm. The % growth inhibition achieved by the compounds was calculated according to standard methods.

[2] = tested on: Staphylococcus aureus (ATCC29213); test: In-vitro anti-bacterial microtitre plate assay, IC90 determination, Staphylococcus aureus; details: for IC90: read-out: IC90 STA 29213
Method: as §1

[3] = 90% inhibitory concentration for bacterial growth, M. Smegmatis ATCC607, 48 hours, Alamar Blue fluorescence
[4] = 90% inhibitory concentration for bacterial growth, Streptococcus pneumoniae ATCC6305, 24 hours, resazurin fluorescence
[5] = 90% inhibitory concentration for bacterial growth, Staphylococcus aureus ATCC29213, 24 hours, resazurin fluorescence

Row | Structure (SMILES) | IC90 MSM ATCC607 (M. Smegmatis (ATCC607); [3]) [mg/L] | IC90 SPN 6305 [1, 4] [mg/L] | IC90 STA 29213 [2, 5] [mg/L] | further results
1 | COc1nc2ccc(Br)cc2cc1C(O)(CCCN(C)C)c1cccc2ccccc12 (stereo not drawn) [Compound 1] | – | – | – | IC90 (M. Smegmatis (ATCC607); [3]): 1.91 mg/L (≈ 3.98 µM); IC90 [1, 4]: 8.53 mg/L (≈ 17.8 µM); IC90 [2, 5]: 7.6 mg/L (≈ 15.9 µM)
2 | COc1nc2ccc(Br)cc2cc1C(O)(CCCCN(C)C)c1cccc2ccccc12 (stereo not drawn) [Compound 2] | 7.82 (≈ 15.8 µM) | 9.85 (≈ 20 µM) | 39.20 (≈ 79.4 µM) | –
3 | COc1nc2ccc(Br)cc2cc1C(O)(CCCCCN(C)C)c1cccc2ccccc12 (stereo not drawn) [Compound 3] | 11.36 (≈ 22.4 µM) | 10.13 (≈ 20 µM) | 8.04 (≈ 15.8 µM) | –
4 | COc1nc2ccc(-c3ccccc3)cc2cc1C(O)(CCCN(C)C)c1cccc2ccccc12 (stereo not drawn) [Compound 4] | – | – | – | IC90 (M. Smegmatis (ATCC607); ATCC607, 48 h): 1.51 mg/L (≈ 3.17 µM); IC90 ([1]; Streptococcus pneumoniae, ATCC6305, 24 h): 1.51 mg/L (≈ 3.17 µM); IC90 ([2]; Staphylococcus aureus, ATCC29213, 24 h): 1.51 mg/L (≈ 3.17 µM)
5 | COc1nc2ccc(-c3ccccc3)cc2cc1C(O)(CCCCN(C)C)c1cccc2ccccc12 (stereo not drawn) [Compound 5] | 7.78 (≈ 15.9 µM) | 49.07 (≈ 100 µM) | 38.97 (≈ 79.4 µM) | –
6 | COc1nc2ccc(-c3ccccc3)cc2cc1C(O)(CCCCCN(C)C)c1cccc2ccccc12 (stereo not drawn) [Compound 6] | 6.35 (≈ 12.6 µM) | 10.07 (≈ 20 µM) | 8.00 (≈ 15.9 µM) | –
7 | COc1ccccc1-c1ccc2nc(OC)c(C(O)(CCCN(C)C)c3cccc4ccccc34)cc2c1 (stereo not drawn) [Compound 7] | 1.60 (≈ 3.16 µM) | 1.8 (≈ 3.55 µM) | 1.60 (≈ 3.16 µM) | –
8 | COc1ccccc1-c1ccc2nc(OC)c(C(O)(CCCCN(C)C)c3cccc4ccccc34)cc2c1 (stereo not drawn) [Compound 8] | 6.55 (≈ 12.6 µM) | 10.39 (≈ 20 µM) | 8.25 (≈ 15.8 µM) | –
9 | COc1ccccc1-c1ccc2nc(OC)c(C(O)(CCCCCN(C)C)c3cccc4ccccc34)cc2c1 (stereo not drawn) [Compound 9] | 8.47 (≈ 15.8 µM) | 8.47 (≈ 15.8 µM) | 8.47 (≈ 15.8 µM) | –
10 | COc1nc2ccc(-c3ccoc3)cc2cc1C(O)(CCCN(C)C)c1cccc2ccccc12 (stereo not drawn) [Compound 10] | 1.48 (≈ 3.17 µM) | 3.30 (≈ 7.07 µM) | 1.66 (≈ 3.56 µM) | –
11 | COc1nc2ccc(-c3ccoc3)cc2cc1C(O)(CCCCN(C)C)c1cccc2ccccc12 (stereo not drawn) [Compound 11] | 7.62 (≈ 15.9 µM) | 9.59 (≈ 20 µM) | 7.62 (≈ 15.9 µM) | –
12 | COc1nc2ccc(-c3ccoc3)cc2cc1C(O)(CCCCCN(C)C)c1cccc2ccccc12 (stereo not drawn) [Compound 12] | 1.56 (≈ 3.15 µM) | 1.76 (≈ 3.56 µM) | 1.56 (≈ 3.15 µM) | –
13 | COc1nc2ccc(-c3cccs3)cc2cc1C(O)(CCCN(C)C)c1cccc2ccccc12 (stereo not drawn) [Compound 13] | 1.53 (≈ 3.17 µM) | 1.71 (≈ 3.54 µM) | 1.53 (≈ 3.17 µM) | –
14 | COc1nc2ccc(-c3cccs3)cc2cc1C(O)(CCCCN(C)C)c1cccc2ccccc12 (stereo not drawn) [Compound 14] | 15.71 (≈ 31.6 µM) | 49.67 (≈ 100 µM) | 39.45 (≈ 79.4 µM) | –
15 | COc1nc2ccc(-c3cccs3)cc2cc1C(O)(CCCCCN(C)C)c1cccc2ccccc12 (stereo not drawn) [Compound 15] | 45.52 (≈ 89.1 µM) | 51.07 (≈ 100 µM) | 51.07 (≈ 100 µM) | –
16 | COc1nc2ccc(-c3cccnc3)cc2cc1C(O)(CCCN(C)C)c1cccc2ccccc12 (stereo not drawn) [Compound 16] | 1.51 (≈ 3.16 µM) | 7.57 (≈ 15.8 µM) | 7.57 (≈ 15.8 µM) | –
17 | COc1nc2ccc(-c3cccnc3)cc2cc1C(O)(CCCCN(C)C)c1cccc2ccccc12 (stereo not drawn) [Compound 17] | 49.16 (≈ 100 µM) | 49.16 (≈ 100 µM) | 49.16 (≈ 100 µM) | –
18 | COc1nc2ccc(-c3cccnc3)cc2cc1C(O)(CCCCCN(C)C)c1cccc2ccccc12 (stereo not drawn) [Compound 18] | 8.01 (≈ 15.8 µM) | 8.99 (≈ 17.8 µM) | 8.01 (≈ 15.8 µM) | –
19 | COc1nc2ccc(-c3cc4ccccc4o3)cc2cc1C(O)(CCCN(C)C)c1cccc2ccccc12 (stereo not drawn) [Compound 19] | 3.26 (≈ 6.31 µM) | 8.19 (≈ 15.9 µM) | 3.66 (≈ 7.08 µM) | –
20 | COc1nc2ccc(-c3cc4ccccc4o3)cc2cc1C(O)(CCCCCN(C)C)c1cccc2ccccc12 (stereo not drawn) [Compound 20] | 1.72 (≈ 3.16 µM) | 1.72 (≈ 3.16 µM) | 1.72 (≈ 3.16 µM) | –
